Legend:
[1] = biological target: Casein kinase I isoform alpha (Homo sapiens) (UniProt P48729); conditions: Compound concentration 1000.0 nM
[2] = biological target: Serine/threonine-protein kinase tousled-like 2 (Homo sapiens) (UniProt Q86UE8); conditions: Compound concentration 1000.0 nM
[3] = biological target: Serine/threonine-protein kinase MARK1 (Homo sapiens) (UniProt Q9P0L2); conditions: Compound concentration 1000.0 nM
[4] = biological target: Ephrin type-B receptor 4 (Homo sapiens) (UniProt P54760); conditions: Compound concentration 1000.0 nM
[5] = biological target: Dual specificity protein kinase CLK2 (Homo sapiens) (UniProt P49760); conditions: Compound concentration 1000.0 nM
[6] = biological target: Ephrin type-A receptor 4 (Homo sapiens) (UniProt P54764); conditions: Compound concentration 1000.0 nM
[7] = test system: Epidermal growth factor receptor (Homo sapiens), P00533 [L858R]; conditions: Compound concentration 1000.0 nM
[8] = biological target: Serine/threonine-protein kinase haspin (Homo sapiens) (UniProt Q8TF76); conditions: Compound concentration 1000.0 nM
[9] = test system: Leucine-rich repeat serine/threonine-protein kinase 2 (Homo sapiens), Q5S007 [G2019S]; conditions: Compound concentration 1000.0 nM
[10] = biological target: Dual specificity mitogen-activated protein kinase kinase 5 (Homo sapiens) (UniProt Q13163); conditions: Compound concentration 1000.0 nM
[11] = biological target: Receptor tyrosine-protein kinase erbB-3 (Homo sapiens) (UniProt P21860); conditions: Compound concentration 1000.0 nM
[12] = biological target: Mitogen-activated protein kinase 8 (Homo sapiens) (UniProt P45983); conditions: Compound concentration 1000.0 nM
[13] = biological target: Serine/threonine-protein kinase Nek10 (Homo sapiens) (UniProt Q6ZWH5); conditions: Compound concentration 1000.0 nM
Chain of Serine/threonine-protein kinase Nek10 (Homo sapiens) (Q6ZWH5 whole entry): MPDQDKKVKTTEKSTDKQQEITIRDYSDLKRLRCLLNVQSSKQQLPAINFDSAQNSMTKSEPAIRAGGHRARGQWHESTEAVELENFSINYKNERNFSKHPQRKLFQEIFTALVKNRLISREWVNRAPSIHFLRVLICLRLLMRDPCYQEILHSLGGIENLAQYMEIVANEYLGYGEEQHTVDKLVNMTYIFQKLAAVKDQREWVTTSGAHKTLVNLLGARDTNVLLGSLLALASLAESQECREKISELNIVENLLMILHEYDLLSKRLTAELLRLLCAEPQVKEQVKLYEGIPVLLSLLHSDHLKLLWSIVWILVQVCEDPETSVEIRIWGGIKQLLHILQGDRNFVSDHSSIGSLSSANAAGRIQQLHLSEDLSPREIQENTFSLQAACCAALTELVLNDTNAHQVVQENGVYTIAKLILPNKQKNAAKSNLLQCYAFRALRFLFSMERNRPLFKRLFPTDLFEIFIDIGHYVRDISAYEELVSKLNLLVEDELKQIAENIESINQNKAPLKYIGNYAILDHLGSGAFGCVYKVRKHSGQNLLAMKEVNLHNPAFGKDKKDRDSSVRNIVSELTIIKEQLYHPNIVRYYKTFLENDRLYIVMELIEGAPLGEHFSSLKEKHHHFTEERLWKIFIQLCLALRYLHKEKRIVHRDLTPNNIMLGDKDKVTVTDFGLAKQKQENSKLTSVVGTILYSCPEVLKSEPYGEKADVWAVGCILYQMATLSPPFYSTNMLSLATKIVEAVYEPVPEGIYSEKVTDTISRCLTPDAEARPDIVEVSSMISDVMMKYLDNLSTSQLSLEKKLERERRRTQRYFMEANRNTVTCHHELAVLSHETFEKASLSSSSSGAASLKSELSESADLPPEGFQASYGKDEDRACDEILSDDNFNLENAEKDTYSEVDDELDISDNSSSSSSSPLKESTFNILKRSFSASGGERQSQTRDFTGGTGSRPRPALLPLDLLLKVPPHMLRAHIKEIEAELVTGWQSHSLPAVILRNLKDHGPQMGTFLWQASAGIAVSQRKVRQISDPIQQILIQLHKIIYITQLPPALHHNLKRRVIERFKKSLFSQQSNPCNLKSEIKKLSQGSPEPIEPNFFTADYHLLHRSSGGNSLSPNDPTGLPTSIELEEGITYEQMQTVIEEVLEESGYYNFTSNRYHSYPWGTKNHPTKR

[14] = biological target: Tyrosine-protein kinase CSK (Homo sapiens) (UniProt P41240); conditions: Compound concentration 1000.0 nM
[15] = biological target: Tyrosine-protein kinase HCK (Homo sapiens) (UniProt P08631); conditions: Compound concentration 1000.0 nM
[16] = biological target: Dual specificity mitogen-activated protein kinase kinase 1 (Homo sapiens) (UniProt Q02750); conditions: Compound concentration 1000.0 nM
[17] = biological target: G protein-coupled receptor kinase 4 (Homo sapiens) (UniProt P32298); conditions: Compound concentration 1000.0 nM
[18] = biological target: Mitogen-activated protein kinase 13 (Homo sapiens) (UniProt O15264); conditions: Compound concentration 1000.0 nM
[19] = test system: Phosphatidylinositol 4,5-bisphosphate 3-kinase catalytic subunit alpha isoform (Homo sapiens), P42336 [I800L]; conditions: Compound concentration 1000.0 nM
[20] = biological target: Histamine H3 receptor (Homo sapiens) (UniProt Q9Y5N1); conditions: Compound concentration 10.0 uM
Chain of Histamine H3 receptor (Homo sapiens) (Q9Y5N1 whole entry): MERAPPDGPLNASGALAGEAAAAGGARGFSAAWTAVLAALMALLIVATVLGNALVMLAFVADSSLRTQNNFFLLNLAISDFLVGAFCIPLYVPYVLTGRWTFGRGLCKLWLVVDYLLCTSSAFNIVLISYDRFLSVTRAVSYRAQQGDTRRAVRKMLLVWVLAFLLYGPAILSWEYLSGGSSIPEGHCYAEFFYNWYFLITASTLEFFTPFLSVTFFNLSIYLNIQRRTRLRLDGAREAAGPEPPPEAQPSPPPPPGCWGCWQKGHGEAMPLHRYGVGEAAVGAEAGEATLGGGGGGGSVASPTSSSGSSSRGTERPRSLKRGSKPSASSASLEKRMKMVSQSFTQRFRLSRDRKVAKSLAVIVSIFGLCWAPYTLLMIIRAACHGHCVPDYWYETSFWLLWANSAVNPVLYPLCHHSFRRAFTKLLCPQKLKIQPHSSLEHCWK

[21] = biological target: Ribosomal protein S6 kinase beta-1 (Homo sapiens) (UniProt P23443); conditions: Compound concentration 1000.0 nM
[22] = biological target: Cyclin-dependent kinase 4 (Homo sapiens) (UniProt P11802); conditions: Compound concentration 1000.0 nM
Chain of Cyclin-dependent kinase 4 (Homo sapiens) (P11802 whole entry): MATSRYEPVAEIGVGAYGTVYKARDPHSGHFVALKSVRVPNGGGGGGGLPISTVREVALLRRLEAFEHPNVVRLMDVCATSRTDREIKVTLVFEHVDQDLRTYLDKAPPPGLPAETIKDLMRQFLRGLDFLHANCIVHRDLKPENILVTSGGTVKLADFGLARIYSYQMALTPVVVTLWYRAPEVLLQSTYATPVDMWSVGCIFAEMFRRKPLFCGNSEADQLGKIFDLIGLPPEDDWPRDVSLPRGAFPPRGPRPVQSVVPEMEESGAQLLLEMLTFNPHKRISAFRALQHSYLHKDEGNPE

[23] = biological target: Protein kinase C delta type (Homo sapiens) (UniProt Q05655); conditions: Compound concentration 1000.0 nM
[24] = test system: Tyrosine-protein kinase ABL1 (Homo sapiens), P00519 [Y253F]; conditions: Compound concentration 1000.0 nM
[25] = biological target: Serine/threonine-protein kinase PAK 3 (Homo sapiens) (UniProt O75914); conditions: Compound concentration 1000.0 nM
[26] = test system: Tyrosine-protein kinase ABL1 (Homo sapiens), P00519 [F317I]; conditions: Compound concentration 1000.0 nM
[27] = biological target: Mitogen-activated protein kinase 7 (Homo sapiens) (UniProt Q13164); conditions: Compound concentration 1000.0 nM
[28] = biological target: Macrophage-stimulating protein receptor (Homo sapiens) (UniProt Q04912); conditions: Compound concentration 1000.0 nM
Chain of Macrophage-stimulating protein receptor (Homo sapiens) (Q04912 25-304 limits assumed): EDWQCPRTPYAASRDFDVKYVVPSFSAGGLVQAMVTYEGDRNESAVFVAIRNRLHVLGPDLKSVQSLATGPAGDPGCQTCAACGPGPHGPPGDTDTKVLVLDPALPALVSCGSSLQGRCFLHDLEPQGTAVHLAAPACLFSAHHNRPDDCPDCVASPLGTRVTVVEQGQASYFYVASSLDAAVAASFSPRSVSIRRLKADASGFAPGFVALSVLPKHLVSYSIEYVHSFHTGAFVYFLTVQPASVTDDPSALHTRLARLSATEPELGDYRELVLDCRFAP
Chain of Macrophage-stimulating protein receptor (Homo sapiens) (Q04912 310-1400 limits assumed): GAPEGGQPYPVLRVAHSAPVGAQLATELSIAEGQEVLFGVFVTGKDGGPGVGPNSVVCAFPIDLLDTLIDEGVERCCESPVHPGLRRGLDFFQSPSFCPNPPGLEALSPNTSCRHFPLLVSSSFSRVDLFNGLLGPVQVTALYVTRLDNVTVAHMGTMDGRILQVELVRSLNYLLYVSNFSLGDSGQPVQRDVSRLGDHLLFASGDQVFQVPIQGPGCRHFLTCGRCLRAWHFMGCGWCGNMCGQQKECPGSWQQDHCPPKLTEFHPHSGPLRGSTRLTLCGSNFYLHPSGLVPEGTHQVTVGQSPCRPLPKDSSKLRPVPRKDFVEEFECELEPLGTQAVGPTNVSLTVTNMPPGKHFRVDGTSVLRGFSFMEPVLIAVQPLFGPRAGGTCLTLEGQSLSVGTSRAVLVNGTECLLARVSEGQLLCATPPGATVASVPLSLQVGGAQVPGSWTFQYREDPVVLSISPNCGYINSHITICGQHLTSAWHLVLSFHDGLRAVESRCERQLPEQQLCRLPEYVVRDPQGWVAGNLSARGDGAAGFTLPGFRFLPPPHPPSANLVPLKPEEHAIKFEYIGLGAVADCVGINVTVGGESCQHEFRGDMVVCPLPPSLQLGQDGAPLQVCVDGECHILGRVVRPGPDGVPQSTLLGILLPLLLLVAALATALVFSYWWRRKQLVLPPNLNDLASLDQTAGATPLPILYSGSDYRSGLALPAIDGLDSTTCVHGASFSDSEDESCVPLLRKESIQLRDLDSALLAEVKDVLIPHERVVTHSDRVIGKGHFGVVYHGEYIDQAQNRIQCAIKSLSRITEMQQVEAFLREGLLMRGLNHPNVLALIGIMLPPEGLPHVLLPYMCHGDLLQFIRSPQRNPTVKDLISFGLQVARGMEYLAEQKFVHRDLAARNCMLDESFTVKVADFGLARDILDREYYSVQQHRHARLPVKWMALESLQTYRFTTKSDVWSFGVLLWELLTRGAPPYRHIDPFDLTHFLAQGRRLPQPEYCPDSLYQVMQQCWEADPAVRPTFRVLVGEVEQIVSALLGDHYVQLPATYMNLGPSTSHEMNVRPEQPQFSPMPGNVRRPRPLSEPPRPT

[29] = biological target: T1, Alpha-1A adrenergic receptor (Homo sapiens) (UniProt P35348); conditions: Compound concentration 10.0 uM
T1 sequence (whole entry): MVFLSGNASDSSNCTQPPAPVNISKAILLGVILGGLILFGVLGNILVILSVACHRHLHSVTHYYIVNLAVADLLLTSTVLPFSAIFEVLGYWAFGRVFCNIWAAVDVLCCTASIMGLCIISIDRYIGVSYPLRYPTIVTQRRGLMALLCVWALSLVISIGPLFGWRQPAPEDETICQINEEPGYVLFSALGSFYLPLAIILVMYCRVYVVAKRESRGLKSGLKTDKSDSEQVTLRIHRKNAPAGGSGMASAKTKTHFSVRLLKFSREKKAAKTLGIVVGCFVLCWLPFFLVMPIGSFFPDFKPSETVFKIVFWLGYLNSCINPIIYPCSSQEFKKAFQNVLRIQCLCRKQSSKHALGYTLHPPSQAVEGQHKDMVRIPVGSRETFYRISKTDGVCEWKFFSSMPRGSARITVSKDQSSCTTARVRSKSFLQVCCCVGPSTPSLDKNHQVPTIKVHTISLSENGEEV

[30] = biological target: Megakaryocyte-associated tyrosine-protein kinase (Homo sapiens) (UniProt P42679); conditions: Compound concentration 1000.0 nM
[31] = biological target: Ephrin type-B receptor 2 (Homo sapiens) (UniProt P29323); conditions: Compound concentration 1000.0 nM
[32] = biological target: Rhodopsin kinase GRK1 (Homo sapiens) (UniProt Q15835); conditions: Compound concentration 1000.0 nM
[33] = biological target: Dual specificity tyrosine-phosphorylation-regulated kinase 1B (Homo sapiens) (UniProt Q9Y463); conditions: Compound concentration 1000.0 nM
Chain of Dual specificity tyrosine-phosphorylation-regulated kinase 1B (Homo sapiens) (Q9Y463 whole entry, looked up): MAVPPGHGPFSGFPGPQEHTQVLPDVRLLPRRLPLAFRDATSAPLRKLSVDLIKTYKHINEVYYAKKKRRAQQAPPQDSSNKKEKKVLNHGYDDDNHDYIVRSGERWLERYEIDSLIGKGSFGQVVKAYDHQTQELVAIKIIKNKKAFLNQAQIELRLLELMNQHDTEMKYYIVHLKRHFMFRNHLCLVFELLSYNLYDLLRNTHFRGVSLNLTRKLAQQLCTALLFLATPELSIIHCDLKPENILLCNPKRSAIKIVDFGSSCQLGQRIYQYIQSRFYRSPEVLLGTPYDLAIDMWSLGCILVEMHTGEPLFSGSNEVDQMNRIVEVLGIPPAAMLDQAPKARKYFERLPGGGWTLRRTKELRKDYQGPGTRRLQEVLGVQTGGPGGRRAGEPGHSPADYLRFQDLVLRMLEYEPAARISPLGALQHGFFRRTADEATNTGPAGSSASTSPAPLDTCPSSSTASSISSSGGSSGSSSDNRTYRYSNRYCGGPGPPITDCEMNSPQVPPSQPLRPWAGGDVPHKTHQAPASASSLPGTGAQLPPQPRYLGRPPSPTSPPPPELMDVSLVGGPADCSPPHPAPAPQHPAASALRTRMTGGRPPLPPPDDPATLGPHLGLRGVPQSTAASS

[34] = biological target: BDNF/NT-3 growth factors receptor (Homo sapiens) (UniProt Q16620); conditions: Compound concentration 1000.0 nM
Chain of BDNF/NT-3 growth factors receptor (Homo sapiens) (Q16620 32-822 limits assumed): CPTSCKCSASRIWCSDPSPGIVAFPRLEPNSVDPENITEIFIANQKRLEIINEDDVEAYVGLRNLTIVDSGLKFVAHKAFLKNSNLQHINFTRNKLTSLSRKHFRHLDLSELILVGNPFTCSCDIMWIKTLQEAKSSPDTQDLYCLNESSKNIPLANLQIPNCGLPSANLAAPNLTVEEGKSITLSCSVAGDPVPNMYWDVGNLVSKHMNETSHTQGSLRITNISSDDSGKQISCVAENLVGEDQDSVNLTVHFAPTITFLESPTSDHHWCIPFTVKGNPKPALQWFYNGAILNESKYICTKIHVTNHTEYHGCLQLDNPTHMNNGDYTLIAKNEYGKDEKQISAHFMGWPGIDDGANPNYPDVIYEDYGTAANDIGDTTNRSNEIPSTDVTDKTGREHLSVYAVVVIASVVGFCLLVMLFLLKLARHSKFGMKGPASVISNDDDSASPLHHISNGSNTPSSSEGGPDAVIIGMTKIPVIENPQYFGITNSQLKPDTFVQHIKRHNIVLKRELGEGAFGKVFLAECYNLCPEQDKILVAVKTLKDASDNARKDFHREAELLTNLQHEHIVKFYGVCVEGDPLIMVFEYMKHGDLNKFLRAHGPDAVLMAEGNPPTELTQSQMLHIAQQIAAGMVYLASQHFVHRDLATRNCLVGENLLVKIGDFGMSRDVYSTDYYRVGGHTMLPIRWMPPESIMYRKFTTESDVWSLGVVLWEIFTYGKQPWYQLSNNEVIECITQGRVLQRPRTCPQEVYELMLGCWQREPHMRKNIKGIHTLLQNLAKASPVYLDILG

[35] = biological target: Tyrosine-protein kinase JAK1 (Homo sapiens) (UniProt P23458); conditions: Compound concentration 1000.0 nM
[36] = test system: Phosphatidylinositol 4,5-bisphosphate 3-kinase catalytic subunit alpha isoform (Homo sapiens), P42336 [H1047Y]; conditions: Compound concentration 1000.0 nM
[37] = biological target: Tyrosine-protein kinase ITK/TSK (Homo sapiens) (UniProt Q08881); conditions: Compound concentration 1000.0 nM
[38] = biological target: Calcium/calmodulin-dependent protein kinase type II subunit gamma (Homo sapiens) (UniProt Q13555); conditions: Compound concentration 1000.0 nM
[39] = biological target: Casein kinase I isoform gamma-3 (Homo sapiens) (UniProt Q9Y6M4); conditions: Compound concentration 1000.0 nM

Chain of Casein kinase I isoform alpha (Homo sapiens) (P48729 2-337 limits assumed): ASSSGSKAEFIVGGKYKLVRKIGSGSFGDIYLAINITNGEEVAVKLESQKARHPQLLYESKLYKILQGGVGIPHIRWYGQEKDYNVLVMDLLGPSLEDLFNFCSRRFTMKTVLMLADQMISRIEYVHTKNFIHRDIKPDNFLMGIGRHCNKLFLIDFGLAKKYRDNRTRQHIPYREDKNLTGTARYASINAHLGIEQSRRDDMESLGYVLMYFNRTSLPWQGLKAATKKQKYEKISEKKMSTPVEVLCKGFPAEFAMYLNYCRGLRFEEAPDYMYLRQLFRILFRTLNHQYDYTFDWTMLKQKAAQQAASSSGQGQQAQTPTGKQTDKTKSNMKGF

O=C(Nc1cnc(Oc2ccc(F)cc2)nc1)N1CCc2ncccc2[C@@H]1c1ccc(F)cc1 [BAY-899]
inactive: residual activity [1] 85% | residual activity [2] 89% | residual activity [3] 71% | residual activity [4] 100% | residual activity [5] 100% | residual activity [6] 88% | residual activity [7] 92% | residual activity [8] 93% | residual activity [9] 100% | residual activity [10] 83% | residual activity [11] 100% | residual activity [12] 83% | residual activity [13] 100% | residual activity [14] 100% | residual activity [15] 96% | residual activity [16] 93% | residual activity [17] 67% | residual activity [18] 100% | residual activity [19] 69% | inhibition [20] -8.41% | residual activity [21] 89% | residual activity [22] 100% | residual activity [23] 87% | residual activity [24] 100% | residual activity [25] 100% | residual activity [26] 100% | residual activity [27] 96% | residual activity [28] 100% | inhibition [29] -3.5% | residual activity [30] 80% | residual activity [31] 87% | residual activity [32] 91% | residual activity [33] 78% | residual activity [34] 100% | residual activity [35] 96% | residual activity [36] 100% | residual activity [37] 90% | residual activity [38] 80% | residual activity [39] 87%

O=C(Nc1ccc(Oc2ccc(F)cc2)cc1)N1CCc2ncccc2[C@H]1c1ccc(F)cc1 [BAY-897]
inactive: residual activity [1] 97% | residual activity [2] 100% | residual activity [3] 81% | residual activity [4] 100% | residual activity [5] 95% | residual activity [6] 100% | residual activity [7] 96% | residual activity [8] 85% | residual activity [9] 100% | residual activity [10] 81% | residual activity [11] 100% | residual activity [12] 91% | residual activity [13] 100% | residual activity [14] 100% | residual activity [15] 100% | residual activity [16] 98% | residual activity [17] 93% | residual activity [18] 96% | residual activity [19] 66% | inhibition [20] 3.57% | residual activity [21] 100% | residual activity [22] 94% | residual activity [23] 100% | residual activity [24] 82% | residual activity [25] 100% | residual activity [26] 100% | residual activity [27] 96% | residual activity [28] 98% | inhibition [29] 16.2% | residual activity [30] 90% | residual activity [31] 91% | residual activity [32] 91% | residual activity [33] 88% | residual activity [34] 84% | residual activity [35] 100% | residual activity [36] 100% | residual activity [37] 96% | residual activity [38] 96% | residual activity [39] 80%
